Experimental data: article PMC3157426 (PLoS ONE, 2011)
Where “and” joins values, the source holds several entries; their conditions need not be identical. Equal values may be shown once. Read-outs that look alike come from different tables or passages of the source.

Tests used:
[1] = molecular target: A/Mississippi/03/01 H1N1 wild type NA (Influenza A virus, UniProt Q289M4); assay type: biochemical, influenza virus A/Mississippi/03/01 H1N1
[2] = molecular target: clade 1 H5N1 virus from Vietnam N1 NA (Influenza A virus, UniProt Q6DPL2); assay type: biochemical, avian influenza H5N1 clade 1 (Vietnam)
[3] = molecular target: B/Perth/211/01 influenza B wild type NA (Influenza B virus, UniProt Q3S340); assay type: biochemical, influenza B virus B/Perth/211/01
[4] = molecular target: H1N1 pandemic influenza virus A/Swine/Shepparton/2009 NA (Influenza A virus, UniProt I6NQT4); experiment: biochemical; assay type: biochemical, influenza virus A/Swine/Shepparton/2009 pandemic H1N1
[5] = molecular target: A/Fukui/45/04 H3N2 wild type NA (Influenza A virus, UniProt C0IZY2); assay type: biochemical, influenza virus A/Fukui/45/04 H3N2
[6] = molecular target: clade 2 H5N1 virus from Indonesia N1 NA (Influenza A virus, UniProt Q6R2G6); assay type: biochemical, avian influenza H5N1 clade 2 (Indonesia)
[7] = system: N2 NA; details: cited from earlier work
[8] = read-out: IC50 at 10 min, 30' Pre
[9] = read-out: IC50 at 10 min, No pre
[10] = read-out: IC50 on relative slope, Rates time interval 30-40
[11] = read-out: IC50 on relative slope, Rates time interval 40-50
[12] = read-out: IC50 on relative slope, Rates time interval 50-60
[13] = read-out: final IC50 after 60 min, 30' pre
[14] = read-out: final IC50 after 60 min, No pre

Compound: CC(=O)N[C@H]1[C@H]([C@H](O)[C@H](O)CO)OC(C(=O)O)=C[C@@H]1O [DANA, 2-deoxy,2,3-dehydro N-acetyl neuraminic acid]
- binding phenotype (slow or fast binding) [1]: fast binding
- binding phenotype (slow or fast binding) [2]: fast binding
- binding phenotype (slow or fast binding) [3]: fast binding
- binding phenotype (slow or fast binding) [4]: fast binding
- binding phenotype (slow or fast binding) [5]: fast binding
- binding phenotype (slow or fast binding) [6]: fast binding

Compound: oseltamivir carboxylate
- IC50 [1, 8]: 0.5 nM
- IC50 [1, 9]: 12.2 nM
- IC50 ([1]; read-out: IC50 on relative slope, Rates time interval 20-30): 6.2 nM and 3.9 nM
- IC50 [1, 10]: 6.7 nM and 4.6 nM
- IC50 [1, 11]: 6.8 nM and 5 nM
- IC50 [1, 12]: 7.9 nM and 5.6 nM
- IC50 [1, 13]: 3.1 nM
- IC50 [1, 14]: 7.3 nM
- IC50 [4, 8]: 0.5 nM
- IC50 [4, 9]: 15.8 nM
- IC50 [4, 13]: 5.1 nM
- IC50 [4, 14]: 6.8 nM
- binding phenotype (slow or fast binding) [5]: slow binding phenotype
- IC50 [5, 8]: 0.5 nM
- IC50 [5, 9]: 30.4 nM
- IC50 [5, 10]: 3.8 nM and 2.5 nM
- IC50 [5, 11]: 3.8 nM and 3.3 nM
- IC50 [5, 12]: 3.4 nM
- IC50 [5, 13]: 1.7 nM
- IC50 [5, 14]: 5.3 nM
- IC50 [6, 8]: 0.9 nM
- IC50 [6, 9]: 28.3 nM
- IC50 [6, 13]: 19.6 nM
- IC50 [6, 14]: 21.4 nM

Compound: CCC(CC)[C@H](NC(C)=O)[C@@H]1[C@H](O)[C@@H](C(=O)O)C[C@H]1N=C(N)N [Peramivir, peramivir]
- 10'/60 (ratio of IC50s), No pre [1]: 6.5
- 60'/10 (ratio of IC50s), 30' Pre [1]: 1.4
- No pre/pre (ratio of 60 min IC50s) [1]: 8.2
- IC50 [1, 8]: 0.3 nM
- IC50 [1, 9]: 20.2 nM
- IC50 [1, 13]: 0.4 nM
- IC50 [1, 14]: 3.1 nM
- 10'/60 (ratio of IC50s), No pre [2]: 6.6
- 60'/10 (ratio of IC50s), 30' Pre [2]: 1.3
- No pre/pre (ratio of 60 min IC50s) [2]: 21.0
- IC50 [2, 8]: 0.2 nM
- IC50 [2, 9]: 40.9 nM
- IC50 [2, 13]: 0.3 nM
- IC50 [2, 14]: 6.2 nM
- 10'/60 (ratio of IC50s), No pre [3]: 9.3
- 60'/10 (ratio of IC50s), 30' Pre [3]: 1.5
- No pre/pre (ratio of 60 min IC50s) [3]: 9.8
- IC50 [3, 8]: 1.9 nM
- IC50 [3, 9]: 259 nM
- IC50 [3, 13]: 2.8 nM
- IC50 [3, 14]: 27.8 nM
- 10'/60 (ratio of IC50s), No pre [4]: 5.1
- 60'/10 (ratio of IC50s), 30' Pre [4]: 1.5
- No pre/pre (ratio of 60 min IC50s) [4]: 7.1
- IC50 [4, 8]: 0.2 nM
- IC50 [4, 9]: 10.1 nM
- IC50 [4, 13]: 0.3 nM
- IC50 [4, 14]: 2 nM
- 10'/60 (ratio of IC50s), No pre [5]: 8.7
- 60'/10 (ratio of IC50s), 30' Pre [5]: 1.3
- No pre/pre (ratio of 60 min IC50s) [5]: 9.0
- IC50 [5, 8]: 1 nM
- IC50 [5, 9]: 103 nM
- IC50 [5, 13]: 1.3 nM
- IC50 [5, 14]: 11.9 nM
- 10'/60 (ratio of IC50s), No pre [6]: 7.0
- 60'/10 (ratio of IC50s), 30' Pre [6]: 1.4
- No pre/pre (ratio of 60 min IC50s) [6]: 9.3
- IC50 [6, 8]: 0.4 nM
- IC50 [6, 9]: 37.7 nM
- IC50 [6, 13]: 0.6 nM
- IC50 [6, 14]: 5.4 nM

Compound: CC(=O)N[C@H]1[C@H]([C@H](O)[C@H](O)CO)OC(C(=O)O)=C[C@@H]1N=C(N)N [Zanamivir, zanamivir]
- variation of the apparent Ki depending on the incubation conditions [7]: 10,000 fold
- IC50 ([4]; IC50 at 10 min, 30' Pre): 0.5 nM
- IC50 ([4]; IC50 at 10 min, No pre): 29.5 nM
- IC50 ([4]; final IC50 after 60 min, 30' pre): 1.4 nM
- IC50 ([4]; final IC50 after 60 min, No pre): 5.8 nM
